melting point [°C] | Compound
251 to 255 | O=S(=O)(O)c1ccc(OC2=C(Oc3ccc(S(=O)(=O)O)cc3)C(F)(F)C(F)(F)C2(F)F)cc1
231 to 232 | COc1ccc(Cc2nc3n(c2Cc2ccc(OC)cc2)CCS3(=O)=O)cc1
156 to 159 | CC(C)(C)OC(=O)N[C@@H]1CN(C2CCCCC2)c2ccccc2NC1=O
116 to 117 | Cc1ccnc2c1C(=O)CC(c1cc(Cl)ccc1Cl)C2 (stereo unspecified)
194 to 196 | Cc1ccccc1S(=O)(=O)NC(=O)Nc1cc(C)c(S(=O)(=O)C[N+](=O)[O-])c(C)c1
110 to 114 | N#CC(c1ccccc1)(c1ccccc1)[C@H]1CCCN(CCc2ccc(CO)cc2)C1
156 to 158 | O=C1CCCC(CNC(=O)c2cc(O)ccc2OCC(F)(F)F)N1 (stereo unspecified)
131 to 132 | CC(C)(C)OC(=O)N1CCC2(CC1)SCc1ccccc12
136 | c1coc(Cn2c(NC3CCN(CCOc4nccs4)CC3)nc3ccccc32)c1
83 to 85 | CCN(CC)S(=O)(=O)c1cc(Cl)c(Cl)c(Cl)c1SCSC#N
165 | COc1ccc(-c2cn(C)cc(-c3ccccc3)c2=O)cc1
123 to 125 | CCCn1c2ccccc2c2c3c(nc(C)c21)CC(C)(C)CC3=O
205 to 207 | O=S(=O)(Nc1ccc2c(OCc3coc(-c4ccc(C(F)(F)F)cc4)n3)cccc2c1)C(F)(F)F
133 | CC(CN1CCCC1)N1c2ccccc2Sc2ccc(C(=O)NCC3CCC3)cc21 (racemic)
162 | O=S1(=O)c2cccc3cccc(c23)N1CCCN1CCC(c2c[nH]c3ccccc23)CC1
178 to 183 | COc1cc(C2CCNCC2)ccc1Nc1ncc2ccc(N3CC(c4ccccc4)CC3=O)n2n1 (stereo unspecified)
246 | Cc1cc(C#N)cc(C(=O)Nc2ccnc(F)c2)n1
> 300 | O=c1[nH]c2cc(C(F)(F)F)c(N3CCOCC3)cc2n2c(=O)[nH]nc12
88 to 92 | CCOC(=O)C(C(=O)N(C)C)=C(OC)c1ccc(Cl)cc1Cl
122 to 124 | COc1ccc(-c2nc3c(OC(C)=O)cccc3s2)cc1
190 to 193 | Cc1cccc(NC(=O)NC2N=C(C(C)C)c3cccc(C)c3N(CC(=O)N3CC4CCC(CC4)C3)C2=O)c1 (stereo unspecified)
230 | Cn1cccc1-c1ccc2c(c1)C(C)(C)OC(=O)N2
81 | CCCCCc1ccc(-c2ccc(CCc3ccc(OCC)cc3)cc2)cc1
94 to 95 | CC(C)C[C@H](NC(=O)OCc1ccccc1)C(=O)N[C@@H](Cc1ccccc1)C(=O)COCc1ccco1
105 to 110 | Nc1nc(Cl)nc(N(CCC(=O)O)Cc2ccc(Cl)c(Cl)c2)n1
175 | Cc1ccc2nc(CCl)n3cnnc3c2c1
86 to 87 | CCCCCCOc1c(F)ccc(C(N)=O)c1F
87 to 88 | O=C(CCCl)N(O)c1ccccc1

melting point [°C] | Compound
253 to 256 | CC1(C)OC(=O)Nc2ccc(-c3ccc(CC#N)c(F)c3)cc21
101 to 105 | CC(=O)C(=Cc1cc([N+](=O)[O-])cc([N+](=O)[O-])c1)C(C)=O
25 | C=Cc1ccc([C@@H](C)N=Cc2cccc(C)n2)cc1
268 to 269 | O=C(Nc1nnn[nH]1)c1cc(Cl)ccc1[N+](=O)[O-]
97 to 99 | C[Si](Cn1ncnc1S)(c1ccc(F)cc1)c1ccc(F)cc1
81 to 83 | Cc1noc2c1C(=O)C(CCCN1CCC(C(=O)c3ccc(F)cc3)CC1)CC2 (stereo unspecified)
83 to 85 | CCCCOC(=O)c1ccc(N(C)C=Nc2ccc(C(=O)OCC)cc2)cc1
164 to 167 | Cc1nn(-c2ccc(Cl)nn2)c(C)c1[N+](=O)[O-]
126 to 128 | CCOC(=O)c1nc(NCC(c2ccccc2)c2ccccc2)c2ncn([C@@H]3O[C@H](CO)[C@H]4OC(C)(C)O[C@H]43)c2n1
129 to 131 | O=c1nc(O)ccc2ccccc12
155 to 157 | COc1nc(N)nc2c1ncn2C1OC(CO)C(OC(=O)c2ccccc2)C1O (stereo unspecified)
73 to 81 | CCOC(=O)C=C(C)Nc1ccccc1N
73 to 75.5 | CCc1nnc(-c2ccc(OC)cc2)c(-c2ccc(OC)cc2)n1
51.2 | CC1=Nc2ccc(F)c(F)c2OC1
256 to 257 | CC1(c2ccccc2)C(=O)Nc2cc(Br)cc(Br)c2C1=O (stereo unspecified)
127 to 131 | Cc1cc(C(C)(C)C)cc(CN)c1S
231 | CNC(=O)NCCN1CCC(Nc2nc3ccccc3n2Cc2ccc(F)cc2)CC1
124 to 126 | CCOC(=O)[C@H](CCc1ccccc1)N[C@@H](C)C(=O)N1CC2(C[C@H]1C(=O)O)SCCS2
226 to 227 | O=[N+]([O-])c1ccc(-n2nc3c(c2O)-c2ccccc2CC3)nc1
58 to 60 | Clc1ccc(OCc2nc3c(OCc4ccccc4)cccc3n2CCCC2CCN(CCCN3CCCCC3)CC2)cc1
125 to 130 | Oc1ccc(-c2nc(-c3cccs3)c[nH]2)cc1Br
153 to 155 | O=C(NC1CCN(c2ccccc2)C1)c1ccc([N+](=O)[O-])cc1 (stereo unspecified)
153 to 155 | CN1C(=O)C(C(=O)Nc2ccc(F)cc2)S(=O)(=O)c2cc(F)ccc21 (stereo unspecified)
111 to 113 | CCOC(=O)CCc1cc2cc(O)ccc2s1
65 to 66 | CCOc1ccc(CCCCCCC(=O)O)cc1
93 | CC(=O)Nc1ccc2c(c1)NC(=O)C2=C(C)C
213 | CN1CCN(N=C2CC(c3ccc(C(F)(F)F)cc3)Cc3c2c(=O)c2cc(Cl)ccc2n3O)CC1 (stereo unspecified)

The remaining lines, values behind:

Compound | melting point [°C]
O=C(O)C(=O)c1ccc(OCCCc2ccc3ccccc3c2)cc1 | 123 to 124
O=c1c(-c2cccc(C(F)(F)F)c2F)nn(Cc2ccc(F)cc2F)c2cc(Cl)ccc12 | 118 to 120
CC(=O)N(C)C12CCCCC1Oc1ccccc12 (stereo unspecified) | 138 to 139
COc1ccccc1C1C(C#N)=C(c2ccccc2)Nc2n[nH]cc21 (stereo unspecified) | 206
COc1ccc2c(c1)CCC1=C2CCC2(C)C(=O)CC=C12 (stereo unspecified) | 111 to 113
COC1=C(OC)C(O)C(CC=C(C)CCC=C(C)CCC=C(C)C)C(C)C1=O (stereo unspecified) | 48 to 52
COc1ccc(C=CC(=O)c2ccc(O)c(CC(=O)O)c2)cc1 | 247
NC(CF)(Cc1ccc(O)c(O)c1)C(=O)O (stereo unspecified) | 230
CCOc1ccc(F)c2c1c(CCN(C)C)cn2CC | 59 to 60
O=C(OCc1ccc([N+](=O)[O-])cc1)OCc1ccc([N+](=O)[O-])cc1 | 156 to 158
CN(C)C=Nc1c(Cl)cc(NCc2ccc(N(C)C)cc2Br)cc1Cl | 135 to 137
CC(C)C(=O)NC1CCc2[nH]c3cc4c(cc3c2C1)OCO4 (stereo unspecified) | 198 to 200
O=C(O)c1ccccc1C(=O)NNC(=S)Nc1ccccc1 | 149 to 151
COc1cc(OC)nc(Oc2ccccc2C(=O)ON(C)C)n1 | 71 to 72.5
Cc1ncc(CN2CCc3ccc(OCc4ccccc4)cc3C2)c(N)n1 | 151 to 153
COC(=O)[C@@H]1C[C@H](NS(=O)(=O)c2ccccc2)C(=O)[C@H]2[C@@]1(C)CC[C@H]1C(=O)O[C@H](c3ccoc3)C[C@]21C | 271 to 273
Cc1nc2c3c(c(C(=O)N4CCOCC4)cc2n1C)CCC1(Cc2ccccc2C1)N3 | 284 to 285
COc1cc(OC)nc(Oc2c(Cl)cc(Cl)cc2C=O)n1 | 132 to 133
COC1CCC2C3CCC4CC(OC(=O)C(C)C)CCC4(C)C3CCC12C (stereo unspecified) | 82 to 87
Fc1ccc2[nH]cc(C3=CCN(CC4COc5ccc6ncccc6c5O4)CC3)c2c1 (stereo unspecified) | 184
CCCCOc1c(-c2ccnc3ccc(C(C)=O)cc23)cc(C(C)C)cc1C(C)C | 133
ICc1ccc2c(c1)OCO2 | 51
CC12C=CCC1C1CCC3CC(O)CCC3C1CC2 (stereo unspecified) | 113 to 115

Compound | melting point [°C]
CCN(CC)c1cc(C)nc(Oc2c(C)cc(Cl)cc2C)c1C | 184 to 185
CN(c1cccc2cc(-c3nccs3)[nH]c12)S(=O)(=O)c1cccs1 | 201 to 202
CSc1onc(-c2ccccc2)c1-c1ccccc1 | 83 to 86
CC1(C)Nc2ccccc2-c2c(N)cnn21 | 181 to 183
CCOC(=O)CNC(=O)n1nc(Oc2cccc(C(F)(F)F)c2)cc1C | 66 to 68
C[C@H]1C(=O)C2(CC2)C(=O)N1c1ccc(C#N)c(Cl)c1 | 169 to 172
COC(OC)c1ccc(C=C2C(=O)C3(C)CCC2C3(C)C)cc1 (stereo unspecified) | 98
COc1cc2c(cc1OC)C(C)C(C)=NN=C2c1cccc(Cl)c1 (stereo unspecified) | 156 to 158
Nc1cc(N2CC(c3cccs3)OC2=O)ccn1 (stereo unspecified) | 151 to 153
COC(=O)C=Cc1ccc(Cl)c(C(F)(F)F)c1 | 71 to 73
CCC1C(=O)Nc2ccc(-c3ccc(C#N)n3C)cc21 (stereo unspecified) | 145 to 147
Oc1cccc(C2CCCN2Cc2cccnc2)c1 (stereo unspecified) | 129 to 131
CCOC(=O)c1ccc(/C=C(\C)c2ccc3c(c2)C(C)(C)CCCC3)cc1 | 69 to 70
O=C(OCCO)c1ccc(Cl)c([N+](=O)[O-])c1 | 102 to 104
COc1ccc(NC(=O)/C=C/c2c(F)c(F)c(F)c(F)c2F)cc1[N+](=O)[O-] | 265 to 266
CCC(C)(C)c1ccc(Oc2ccc(C(=O)c3ccc(Oc4ccc(C(C)(C)CC)cc4C(C)(C)CC)cc3)cc2)c(C(C)(C)CC)c1 | 54 to 56
CCCCCN1C(=O)CN=C(c2ccccc2)c2ccccc21 | 93 to 95
CCN(CC)C(=O)NC1CC2c3cccc4[nH]c(CC#CO)c(c34)CC2N(C)C1 (stereo unspecified) | 151 to 154
c1ccn(NC2=NCCN2)c1 | 183 to 184
COc1cc(N2CCN(c3c(C)c(C)c4c(c3C)CC(C)(C)O4)CC2)ccc1F | 152 to 155
O=C(C=Cc1ccccc1-c1ccccc1)c1ccccc1 | 190
CCCN1CCN=C1c1ccccc1C(=O)c1ccc(Cl)cc1 | 131 to 133
CC(C)(C)N1C(=O)[C@@H]2C[C@H]1CN2C(=O)[C@@H](O)[C@H](Cc1ccccc1)NC(=O)[C@H](CC(N)=O)NC(=O)OCc1ccccc1 | 112 to 115

From a melting point compilation (Tetko et al.; mined from patent text by program, amines drawn as free bases though some values may be those of a salt)
